Columns and labels:
Assay type in all cases: physicochemical
[1] = NBPT mixture storage at −20° C. for 4 weeks (crystal formation, flowability); conditions: solution free of crystal or flowable at −20° C.
Description: Recipe: 20 wt % NBPT/80 wt % Solvent
(§1) Each NBPT mixture is stored at three temperatures, room temperature (20-25° C.), 55° C., and −20° C. for 4 weeks to evaluate storage stability at elevated, ambient, and sub-ambient conditions. After 4 weeks of storage, the samples are visually inspected for (1) color, which is an indication of degradation, and (2) crystal formation, which is an indicator of insufficient solvency to carry 20 wt % NBPT.
(§2) NBPT is considered compatible with a solvent if the mixture remained clear, crystal free, and flowable at −20° C. for four weeks, and has little color (colorless or pale yellow) after four weeks at 55° C.

[2] = Solvent vapor pressure at 20° C.; conditions: neat solvent
Description: • (1) a vapor pressure of less than or equal to (≤) 0.01 millimeters of mercury (mmHg) at 20° C. as measured by ASTM E1719, • (2) a flash point equal to or greater than (≥) 200° F. (93° C.) as measured by ASTM D3278, • (3) a viscosity less than or equal to (≤) 200 centipoise (cP) at 25° C. as measured by ASTM D445, • (4) a hydroxyl number from 100 to 1,000 as measured by ASTM D4274, and • (5) a VOC content less of than or equal to (≤) 50 weight percent (wt %) as measured by ASTM D6886.
In one embodiment, the fertilizer stabilizer compositions of this invention have a low vapor pressure, typically less than or equal to (≤) 0.01 millimeters of mercury (mmHg), or ≤0.001 mmHg, or ≤0.0001 mmHg, at 20° C. as measured by ASTM E1719.
Only two glycol ethers are identified as compatible with NBPT: methyl CARBITOL™ (as described in WO 2014/028767 A1 and WO 2008/000196 A1, an alkyl glycol ether not of Formula 1, and a comparative sample) and DOWANOL™ EPh6 (a mixture of glycol ethers comprising at least two structures of Formula 1, and an inventive sample). […]

[3] = Compatibility of NBPT with solvent (storage study overall); conditions: clear, crystal free, flowable at −20° C. for four weeks and little color after four weeks at 55° C.; 20 wt % NBPT
Description: as §1, §2

Row | Structure (SMILES) | Solvency to carry 20 wt % NBPT [1] | Vapor pressure mmHg at 20° C. [2] | Vapor pressure mmHg at 20° C. ([2]; listed as methyl CARBITOL™) | Compatibility with NBPT [3]
1 | OCCOCCOc1ccccc1 [DOWANOL DiEPh] | not able to produce a NBPT mixture that provides sufficient solvency to carry 20 wt % NBPT |  |  | 
2 | OCCOc1ccccc1 [DOWANOL EPh] | not able to produce a NBPT mixture that provides sufficient solvency to carry 20 wt % NBPT |  |  | 
3 | CC(O)COc1ccccc1 (stereo not drawn) [DOWANOL PPh] | not able to produce a NBPT mixture that provides sufficient solvency to carry 20 wt % NBPT |  |  | 
4 | COCCOCCO [Methyl CARBITOL] |  | 0.23 mmHg | > 0.1 mmHg | compatible
